Consider 46 compounds from patent US20100267712A1, “ISOINDOLINE COMPOUNDS FOR THE TREATMENT OF SPINAL MUSCULAR ATROPHY AND OTHER USES” (The United States of America, as represented by the …, priority 2007, published 2010).

Series [1] concerns translational stop codon read-through, human SMN2 open reading frame-luciferase. Kind of series: Translational read-through luciferase reporter assay (luciferase preceded by the open reading frame of the human SMN2 gene). In kind it is cell-based. The text has this: This assay was similar in design to that described in WO 01/44516 A2. This was a cell-based luciferase reporter assay designed to detect translational read-through via insertion of a translational stop codon within the coding sequence that includes luciferase. In the presence of compounds that promote read-through of translational stop codons, active luciferase was produced and detected via chemiluminescence. Compounds of the invention typically were active in three versions of this assay: luciferase reporter containing a UGA stop codon, luciferase reporter containing a UAG stop codon, which is the first stop codon downstream of the improper splice junction between exons 6 and 8 in the human SMN2 transcript, and luciferase preceded by the open reading frame of the human SMN2 gene.
A general note: A reporter such as luciferase makes a cellular process visible.

The test system of series [2] is SMN2-linked luciferase-reporter gene construct. Kind of series: SMN Splice Reporter Assay (SMN2-linked luciferase reporter). The format is cell-based. To be noted: for EC50: cervical carcinoma cell lines, SMN2 splice luciferase reporter; for Fold Increase: fold-increase of luciferase over baseline reading of transformed cells without any test compound. Summed up: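 Cervical carcinoma cells carrying an SMN2-luciferase splicing reporter, in-frame only with exon 7 inclusion, were treated with compound. Luciferase activity reported as fold increase over untreated transformed cells, with EC50 derived.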

A word on the melting point: it is the temperature, or range, at which the solid turns liquid. `COc1ccc2c(c1)C(=O)N(c1ccc3cnn(C)c3c1)C2` had a melting point of 175 to 177 °C.
As usually defined, the EC50 is the concentration that produces a half-maximal response. Higher therefore signals weaker potency. As a reminder, the maximal fold induction is the signal under treatment as a multiple of the control signal. A higher maximal fold induction goes with a large rise in signal. Consider `O=C1c2ccccc2CN1c1ccc2c(c1)OCCO2` [Example 116069], for which, in series [1], the EC50 worked out at 2440 nM and the maximal fold induction worked out at 1.97. Further, in series [2], the response was half-maximal at 95 nM (EC50) and the “Fold Increase” value came out at 1.348.
In the same order, the values of `COc1ccc2c(c1)C(=O)N(c1ccc3c(c1)OCCO3)C2` [Example 116239] are 421 nM, 2.02, 20 nM and 1.228.
In the same order, the values of `COc1ccc2c(c1)C(=O)N(c1ccc3c(c1)OC(C)(C)O3)C2` [Example 116566] are 4180 nM, 1.36, 9 nM and 1.308.
Turning to `Cn1ccc2cc(N3Cc4cc5c(cc4C3=O)OCCO5)ccc21` [Example 118275], in series [1], the EC50 turned out to be 2090 nM and the maximal fold induction is 1.28. Further, in series [2], the EC50 worked out at 14 nM and the “Fold Increase” value worked out at 1.484.
In the same order, the values of `COc1ccc2c(c1)C(=O)N(c1ccc3ccoc3c1)C2` [Example 118740] are 220 nM, 1.67, 22 nM and 1.388.
In the same order, the values of `COc1ccc2c(c1)C(=O)N(c1ccc3c(ccn3C(C)C)c1)C2` [Example 119518] are 2800 nM, 1.2, 71 nM and 1.617.
In the same order, the values of `Cn1ccc2cc(N3Cc4ccc(Br)cc4C3=O)ccc21` [Example 119521] are 2960 nM, 1.56, 96 nM and 1.491.
As for `COCn1ccc2cc(N3Cc4ccc(OC)cc4C3=O)ccc21` [Example 119658], in series [1], the EC50 stood at 6030 nM and the maximal fold induction was 1.19. Also, in series [2], the EC50 came out at 59 nM and the “Fold Increase” value worked out at 1.42.
In the same order, the values of `COCCn1ccc2cc(N3Cc4ccc(OC)cc4C3=O)ccc21` [Example 119659] are 752 nM, 1.38, 68 nM and 1.405.
In the same order, the values of `COc1ccc2c(c1)C(=O)N(c1ccc3c(c1)N(C)CCO3)C2` [Example 119867] are 676 nM, 2.04, 117 nM and 1.495.
In the case of `COc1cc2c(cc1OC)C(=O)N(c1ccc3ccn(C)c3c1)C2` [Example 120594], in series [1], it took 19400 nM to reach a half-maximal effect (EC50) and the maximal fold induction was determined as 2.08. In series [2], the EC50 came to 2060 nM and the “Fold Increase” value came to 1.561.
In the same order, the values of `Cn1ccc2cc(N3Cc4ccc(Cl)cc4C3=O)ccc21` [Example 120599] are 1890 nM, 1.88, 61 nM and 1.407.
In the same order, the values of `COc1ccc2c(c1)C(=O)N(c1ccc3c(cnn3C)c1)C2` [Example 120600] are 4890 nM, 1.83, 59 nM and 1.312.
With `COc1ccc2c(c1)C(=O)N(c1ccc3[nH]ncc3c1)C2` [Example 120601], in series [1], the EC50 came out at 15600 nM and the maximal fold induction was 1.65. In series [2], the “Fold Increase” value was 1.059.
Regarding `COc1ccc2c(c1)C(=O)N(c1ccc3cnn(C)c3c1)C2` [Example 120604], in series [1], the EC50 amounted to 7910 nM and the maximal fold induction is 1.65. In series [2], the response was half-maximal at 415 nM (EC50) and the “Fold Increase” value is recorded as 1.441.
In the same order, the values of `COc1ccc2c(c1)C(=O)N(c1ccc3nccnc3c1)C2` [Example 120791] are 641 nM, 1.91, 70 nM and 1.372.
In series [1], `COc1ccc2c(c1)C(=O)N(c1ccc3nccn3c1)C2` [Example 120955] showed an EC50 of 14100 nM and a maximal fold induction of 1.66. For the same compound, in series [2], the EC50 was found to be 1590 nM and the “Fold Increase” value is given as 1.265.
For `CC(C)n1ccc2cc(N3Cc4ccc(OC(F)F)cc4C3=O)ccc21` [Example 121259], in series [1], the EC50 stood at 32 nM and the maximal fold induction came to 1.03. In addition, the “Fold Increase” value in series [2] was found to be 1.166.
In the case of `COc1ccc2c(c1)C(=O)N(c1ccc3nc(C)ncc3c1)C2` [Example 121924], in series [1], the EC50 is 2650 nM and the maximal fold induction turned out to be 1.66. In series [2], a half-maximal response (EC50) required 1360 nM and the “Fold Increase” value was 1.489.
In the same order, the values of `CC(=O)Nc1ccc2c(c1)C(=O)N(c1ccc3c(ccn3C)c1)C2` [Example 122435] are 1290 nM, 1.98, 143 nM and 1.412.
In the same order, the values of `COc1ccc2c(c1)C(=O)N(c1ccc3sc(C)cc3c1)C2` [Example 122685] are 667 nM, 1.87, 24 nM and 1.251.
In the same order, the values of `Cc1cc2cc(N3Cc4ccc(Br)cc4C3=O)ccc2n1C` [Example 122818] are 12800 nM, 1.81, 207 nM and 1.551.
`Cc1cc2cc(N3Cc4ccc(N5CCCC5)cc4C3=O)ccc2n1C` [Example 123330] gave a maximal fold induction in series [1] of 1.4. Also, in series [2], the “Fold Increase” value was determined as 1.113.
In series [1], `Cc1cc2cc(N3Cc4ccc(OC(C)C)cc4C3=O)ccc2n1C` [Example 123934] registered an EC50 of 97700 nM and a maximal fold induction of 1.3. Further, in series [2], it took 63 nM to reach a half-maximal effect (EC50) and the “Fold Increase” value is 1.554.
In the case of `CCCOc1ccc2c(c1)C(=O)N(c1ccc3cc(C)n(C)c3c1)C2` [Example 124982], in series [2], the “Fold Increase” value is given as 1.221.
The same measure, in the same setting: with `CCOc1ccc2c(c1)C(=O)N(c1ccc3cc(C)n(C)c3c1)C2` [Example 124983] the figure was 1.305; with `Cc1cc2ccc(N3Cc4ccc(O)cc4C3=O)cc2n1C` [Example 124984], 1.401.
Still for that read-out and setting: with `Cc1cc2ccc(N3Cc4ccc(-c5cccnc5)cc4C3=O)cc2n1C` [Example 125093] the figure was 1.082.
In turn, `CC(C)n1ccc2cc(N3Cc4ccc(Cl)cc4C3=O)ccc21` [Example 125094] displayed a maximal fold induction in series [1] of 1.16. Moreover, in series [2], the EC50 is 9 nM and the “Fold Increase” value came out at 1.256.
In the case of `CC(C)Oc1ccc2c(c1)C(=O)N(c1ccc3cc[nH]c3c1)C2` [Example 125095], in series [2], the EC50 turned out to be 3 nM and the “Fold Increase” value worked out at 1.134.
In the same order, the values of `Cn1ccc2cc(N3Cc4ccc(NC=O)cc4C3=O)ccc21` [Example 125096] are 44 nM and 1.371.
In the same order, the values of `COc1ccc2c(c1)C(=O)N(c1ccc3cc(C)[nH]c3c1)C2` [Example 125097] are 50 nM and 1.347.
In the same order, the values of `Cc1cc2ccc(N3Cc4ccc(OC(C)C)cc4C3=O)cc2n1C` [Example 125098] are 134 nM and 1.251.
Take `CC(=O)Nc1ccc2c(c1)C(=O)N(c1ccc3cc[nH]c3c1)C2` [Example 125269]: in series [2], the response was half-maximal at 15 nM (EC50) and the “Fold Increase” value came out at 1.416.
`CC(C)n1ccc2cc(N3Cc4ccc(Br)cc4C3=O)ccc21` [Example 125270] had a maximal fold induction in series [1] of 1.19. Also, in series [2], the EC50 worked out at 16 nM and the “Fold Increase” value worked out at 1.446.
For `CC(C)n1ccc2cc(N3Cc4ccc(N(C)C)cc4C3=O)ccc21` [Example 125271], in series [2], the EC50 was determined as 22 nM and the “Fold Increase” value is recorded as 1.285.
Take `CC(C)n1ccc2cc(N3Cc4ccc(N5CCCC5)cc4C3=O)ccc21` [Example 125384]: the “Fold Increase” value in series [2] is given as 1.091.
The same measure, in the same setting: with `Cc1cc2cc(N3Cc4ccc(Br)cc4C3=O)ccc2n1C(C)C` [Example 125385] the figure was 1.454; with `CCCc1ccc2c(c1)C(=O)N(c1ccc3c(ccn3C(C)C)c1)C2` [Example 125386], 1.037.
With `CN(C)c1ccc2c(c1)C(=O)N(c1ccc3cc[nH]c3c1)C2` [Example 125600], in series [2], the EC50 stood at 4 nM and the “Fold Increase” value worked out at 1.405.
With `CCCc1ccc2c(c1)C(=O)N(c1ccc3c(c1)cc(C)n3C(C)C)C2` [Example 125601], the “Fold Increase” value in series [2] is recorded as 1.027.
Still for that read-out and setting: as for `Cc1cc2cc(N3Cc4ccc(N(C)C)cc4C3=O)ccc2n1C(C)C` [Example 125602], the figure is 1.139; as for `Cc1cc2cc(N3Cc4ccc(N5CCCC5)cc4C3=O)ccc2n1C(C)C` [Example 125603], 0.995.
On the same count and under the same terms, as for `CC(=O)Nc1ccc2c(c1)C(=O)N(c1ccc3c(c1)cc(C)n3C(C)C)C2` [Example 125822], the figure is 1.329.
Turning to `CC(=O)Nc1ccc2c(c1)C(=O)N(c1ccc3c(ccn3C(C)C)c1)C2` [Example 126111], in series [2], the EC50 was 63 nM and the “Fold Increase” value was 1.34.
